Among the data in ChEMBL document CHEMBL1150055, “New Diol Esters Isolated from Cultures of the Dinoflagellates Prorocentrum lima and Prorocentrum concavum” (J Nat Prod, 1992) are Activity values, retold here.

Calls of active or inactive are those of the source. The rule behind the calls is not given here.

The nature of experiment [1]: Inhibition of PP2A.
A short description of experiment [2]: Inhibition of PP1.

Regarding `C=C1[C@@H](O)[C@@H]2O[C@]3(CC[C@H](/C=C/[C@@H](C)[C@@H]4CC(C)=C[C@@]5(O[C@H](C[C@@](C)(O)C(=O)OC)CC[C@H]5O)O4)O3)CC[C@H]2O[C@@H]1[C@@H](O)C[C@H](C)[C@H]1O[C@@]2(CCCCO2)CC[C@H]1C`, the result in experiment [1] and in experiment [2] was inactive.
On to `C=C1[C@@H](O)[C@@H]2O[C@]3(CC[C@H](/C=C/[C@@H](C)[C@@H]4CC(C)=C[C@@]5(O[C@H](C[C@@](C)(O)C(=O)OC/C(C)=C/C=C/CCO)CC[C@H]5O)O4)O3)CC[C@H]2O[C@@H]1[C@@H](O)C[C@H](C)[C@H]1O[C@@]2(CCCCO2)CC[C@H]1C`, for which the result in experiment [1] and in experiment [2] was inactive.
Consider `C=C1[C@@H](O)[C@@H]2O[C@]3(CC[C@H](/C=C/[C@@H](C)[C@@H]4CC(C)=C[C@@]5(O[C@H](C[C@@](C)(O)C(=O)OC/C(C)=C/C=C/CO)CC[C@H]5O)O4)O3)CC[C@H]2O[C@@H]1[C@@H](O)C[C@H](C)[C@H]1O[C@@]2(CCCCO2)CC[C@H]1C`, for which the result in experiment [1] and in experiment [2] was inactive.
